# Laboratory results reported in publication PMC8774648, “Effects of Baicalein and Chrysin on the Structure and Functional Properties of β-Lactoglobulin” (Foods, 2022).
# Values joined by “and” are separate entries in the source; they are usually repeats but may differ in a detail not shown here. Equal values may be shown once. Read-outs that look alike come from different tables or passages of the source. Marks after values point to notes of the source that are not given here.
# What was measured:
# β-lactoglobulin (BLG) [1] = target: T1, β-lactoglobulin (BLG) (Bos taurus, UniProt P02754); assay: Thermodynamic parameters of Bai/Chr–BLG binding (Van't Hoff equation)
# T1 construct: purchased Sigma–Aldrich Co. (St. Louis, MO, USA)
# T1 sequence (P02754 17-178): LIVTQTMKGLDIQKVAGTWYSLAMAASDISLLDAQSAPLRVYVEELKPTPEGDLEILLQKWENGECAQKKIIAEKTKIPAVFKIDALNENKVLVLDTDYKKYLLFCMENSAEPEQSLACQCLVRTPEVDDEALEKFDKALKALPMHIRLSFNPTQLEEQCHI
# Protocol: In order to determine the primary forces between BLG and Bai/Chr, thermodynamic parameters were calculated using the following equations [23]:(3) logKa=−ΔH°/2.303RT+ΔS°/2.303R (4) ΔG°=ΔH°−TΔS° where R and T represent gas constant (8.314 J mol^−1 K^−1) and temperature (298, 304, and 310 K), respectively. Enthalpy change (ΔH°) and entropy change (ΔS°) of interaction between ligands and biomolecules are the main criteria for evaluating acting force, and free energy (ΔG°) is the main criteria for estimating the spontaneity of interaction.
# β-lactoglobulin (BLG) [2] = target: T1, β-lactoglobulin (BLG); assay: Emulsifying ability and emulsifying stability of BLG
# Protocol: Emulsifying ability (EA) and emulsifying stability (ES) were investigated by the method of Xiong et al. with slight modification. BLG solution (1 mg mL^−1) was added to Bai/Chr to form the solutions with different ratios of BLG to Bai/Chr (40:1, 30:1, 20:1, 10:1), and then soybean oil was added to form BLG solution containing 10% (v/v) oil. The emulsion was fully dispersed for 2 min at a rate of 7000 r min^−1 and repeated for three times. At 0 and 10 min, 30 µL of emulsion was extracted from the bottom of the sample and immediately added to 3 mL of 0.1% SDS solution. The absorbance of the sample was measured at 500 nm and recorded as A0 and A10, respectively. The EA (m^2 g^−1) and ES (min) were calculated according to the following equations:(11) EA (m^2 g^−1)=2×2.303/c×Φ×L×10^4×A0×D (12) ES (min)=A0/A0−A10×10 where c is the weight of the BLG per unit volume (g mL^−1), Φ is the volume fraction of the oil phase, L is the length of light path, and D is the dilution factor, D = 100.
# β-lactoglobulin (BLG) [3] = target: T1, β-lactoglobulin (BLG); assay: CD spectra, secondary structure contents of BLG
# Protocol: The CD spectra in the range of 200–250 nm were obtained from a CD spectrometer (MOS 450, Bio–Logic, Claix, France) equipped with 1.0 mm path length cuvette under the constant nitrogen flush. The solutions were prepared with molar ratios of Bai or Chr to BLG of 0:1, 1:1, and 2:1, respectively. The contents of secondary structure of BLG were determined based on our previously reported study.
# β-lactoglobulin (BLG) [4] = target: T1, β-lactoglobulin (BLG); assay: Three-dimensional fluorescence spectra of BLG with Bai/Chr; conditions: c(BLG) = 20.0 µM, c(Bai/Chr) = 20.0 μM
# Protocol: (§1) Intrinsic fluorescence spectroscopic test was measured on a F–7000 spectrophotometer (Hitachi, Japan) equipped with temperature controller according to the method described in the previous study. Briefly, 3 mL solution of BLG (20.0 µM) was titrated by continuously adding different amounts of Bai or Chr (0–20.0 µM). The fluorescence spectra were recorded at different temperatures (298 K, 304 K, and 310 K) with the excitation wavelength of 280 nm and the excitation and emission slit set at 2.5 nm. Moreover, synchronous fluorescence spectra were conducted by setting the wavelength intervals (λem–λex) at 15 nm and 60 nm, respectively. The 3D fluorescence spectra (molar ratios of BLG to Bai/Chr were 1:0 and 1:1) were recorded at excitation and emission wavelength range of 200−600 nm. All the fluorescence values were corrected to eliminate the internal filtering effect according to the previous method, and were used to evaluate the quenching mechanism of Bai/Chr binding to BLG by using the following equation [21]:(1) F0/F=1+Kqτ0[Q]=1+KSV[Q] where F and F0 are the fluorescence intensities of fluorophore with and without quencher; Ksv denotes the Stern–Volmer quenching constant; Kq is the quenching rate constant (Kq = Ksv/τ0), and τ0 is the average lifetime of the biomolecule in the absence of a quencher (τ0 = 10^−8 s); [Q] represents the experimental concentration of Bai/Chr.
# β-lactoglobulin (BLG) [5] = target: T1, β-lactoglobulin (BLG); assay: Free sulfhydryl (SH) content of BLG (DTNB); conditions: Bai/Chr 0 to 20.0 µM, BLG 20.0 µM
# Protocol: The content of free SH was determined by spectrophotometry according to the report by Takić et al. with minor modifications. Briefly, Bai/Chr concentrations were varied from 0 to 20.0 µM, and BLG was kept at 20.0 µM. Then the two solutions were incubated with 10.0 mM DTNB in 50 mM PBS (pH 6.8) for 30 min at room temperature. The absorbance of the sample at 412 nm was recorded and the molar extinction coefficient (14,360 M^−1 cm^−1) was obtained from the standard curve of L-cysteine, which was used to calculate the number of total sulfhydryl groups per gram of protein.
# β-lactoglobulin (BLG) [6] = target: T1, β-lactoglobulin (BLG); assay: Intrinsic fluorescence quenching of BLG by Bai/Chr (Stern–Volmer and double logarithmic equations); format: binding; conditions: for Ksv (Stern–Volmer quenching constant) / Kd: pH 6.8; for Kd: read-out: Ka (binding constant) (converted)
# Protocol: as §1
# For static fluorescence quenching mechanism, the binding constant (Ka) and the number of binding sites (n) could be determined by the following equation [22]:(2) logF0−F/F=nlogKa−nlog1/[Qt]−(F0−F)[Pt]/F0 where [Qt] and [Pt] are the concentrations of Bai/Chr and BLG, respectively.
# β-lactoglobulin (BLG) [7] = target: T1, β-lactoglobulin (BLG); assay: Foaming ability and foaming stability of BLG
# Protocol: Foaming ability (FA) and foaming stability (FS) were measured as described by Wang et al. with some modifications. A certain amount of BLG solution (1.0 mg mL^−1) was added to a 100 mL cylinder, and Bai or Chr was added to form solutions with different ratios of BLG to Bai or Chr (40:1, 30:1, 20:1, 10:1). The initial height H0 of the foam was recorded. The foam was then sheared at 10,000 rpm in a high-speed dispersion machine for 1 min and the height of the foam was recorded as H1. The height of the foam was recorded as H2 30 min later. The FA (%) and FS (%) were calculated according to the following equations:(9) FA (%)=H1−H0/H0×100 (10) FS (%)=H2−H0/H1−H0×100
# β-lactoglobulin (BLG) [8] = target: T1, β-lactoglobulin (BLG); assay: Protein surface hydrophobicity (PSH) of BLG with ANS probe
# Protocol: PSH of BLG in the presence or absence of Bai or Chr was determined using ANS as a fluorescent probe. In the BLG solution (20.0 µM) alone or Bai/Chr–BLG mixture the ANS solution (5 mM) was continuously added until the fluorescence intensity of the mixture remained constant. The fluorescence intensity of the sample was recorded in the wavelength range of 400–600 nm upon 380 nm excitation. The PSH values were calculated by the following equations [26]:(5) [ANS]bound=F/B (6) [ANS]free=[ANS]total−[ANS]bound (7) F/[ANS]free=−F/Kdapp−Fmax/Kdapp (8) PSH=Fmax/[BLG]Kdapp where [ANS]free and [ANS]bound are the concentration of free and bound ANS, respectively. Kdapp is the apparent dissociation constant of ANS, Fmax is the maximum fluorescence intensity at saturating ANS concentration and B is the proportionality coefficient.
# [9] = molar ratio of Bai/Chr to BLG 1:1
# [10] = molar ratio of Bai/Chr to BLG 2:1
# [11] = molar ratio of Bai/Chr to BLG 2:1, listed as Bai–BLG
smiles,measurement,setting,value
"O=c1cc(-c2ccccc2)oc2cc(O)c(O)c(O)c12 [Bai, baicalein]",ΔG° (free energy),β-lactoglobulin (BLG) [1]; T = 298 K,-7.421 kcal/mol
same,ΔG° (free energy),β-lactoglobulin (BLG) [1]; T = 304 K,-7.543 kcal/mol
same,ΔG° (free energy),β-lactoglobulin (BLG) [1]; T = 310 K,-7.665 kcal/mol
same,ΔH° (enthalpy change),"β-lactoglobulin (BLG) [1]; from Ka at 298, 304 and 310 K",-1.34 kcal/mol
same,ΔS° (entropy change),"β-lactoglobulin (BLG) [1]; from Ka at 298, 304 and 310 K",85.44 J mol^−1 K^−1
same,effect on emulsifying stability (ES) of BLG,β-lactoglobulin (BLG) [2]; BLG to Bai/Chr 40:1 to 10:1,promoted the enhancement of ES
same,effect on emulsifying ability (EA) of BLG,β-lactoglobulin (BLG) [2]; with the increase of Bai or Chr concentration (BLG to Bai/Chr 40:1 to 10:1),slightly improved
same,Random Coil content of BLG,β-lactoglobulin (BLG) [3]; [9],26.47 ± 0.41 ^b %
same,α-Helix content of BLG,β-lactoglobulin (BLG) [3]; [9],14.12 ± 0.70 ^c %
same,β-Sheet content of BLG,β-lactoglobulin (BLG) [3]; [9],36.25 ± 0.25 ^b %
same,β-Turn content of BLG,β-lactoglobulin (BLG) [3]; [9],23.16 ± 0.12 ^a %
same,Random Coil content of BLG,β-lactoglobulin (BLG) [3]; [10],25.26 ± 033 ^c %
same,β-Turn content of BLG,β-lactoglobulin (BLG) [3]; [10],24.77 ± 0.54 ^b %
same,α-Helix content of BLG,β-lactoglobulin (BLG) [3]; [11],15.85% and 15.85 ± 0.93 ^b %
same,β-Sheet content of BLG,β-lactoglobulin (BLG) [3]; [11],34.12% and 34.12 ± 0.34 ^d %
same,fluorescence intensity of Peak 2 (3D fluorescence),β-lactoglobulin (BLG) [4]; free BLG 430.6,206.8
same,fluorescence intensity of Peak 1 (3D fluorescence),β-lactoglobulin (BLG) [4]; free BLG 522.1,395.4
same,effect on contents of free SH group of BLG,β-lactoglobulin (BLG) [5],gradually weakened
same,n (number of binding sites),β-lactoglobulin (BLG) [6]; T = 298 K,1.03 ± 0.03
same,Ksv (Stern–Volmer quenching constant),β-lactoglobulin (BLG) [6]; T = 298 K,5.75 ± 0.01 ^a ×10^4 L mol^−1
same,Kd,β-lactoglobulin (BLG) [6]; T = 298 K,3.6 µM
same,n (number of binding sites),β-lactoglobulin (BLG) [6]; T = 304 K,1.23 ± 0.02
same,Ksv (Stern–Volmer quenching constant),β-lactoglobulin (BLG) [6]; T = 304 K,4.76 ± 0.03 ^b ×10^4 L mol^−1
same,Kd,β-lactoglobulin (BLG) [6]; T = 304 K,3.75 µM
same,n (number of binding sites),β-lactoglobulin (BLG) [6]; T = 310 K,1.31 ± 0.03
same,Ksv (Stern–Volmer quenching constant),β-lactoglobulin (BLG) [6]; T = 310 K,4.47 ± 0.06 ^c ×10^4 L mol^−1
same,Kd,β-lactoglobulin (BLG) [6]; T = 310 K,3.92 µM
same,BLG fluorescence quenching,"β-lactoglobulin (BLG) [6]; after 10 times titration, 298 K, c(BLG) = 20 µM",63.2%
same,n (number of binding sites),β-lactoglobulin (BLG) [6]; general statement for the three temperatures,approximately 1
same,increase of foaming stability (FS) of BLG,"β-lactoglobulin (BLG) [7]; compared with BLG alone, molar ratio of BLG to Bai/Chr 10:1",80.64%
same,increase of foaming ability (FA) of BLG,"β-lactoglobulin (BLG) [7]; compared with FA of free BLG (25.2%), molar ratios of BLG to Bai/Chr changed from 40:1 to 10:1",18.08%
same,F max (maximum fluorescence intensity at saturating ANS),β-lactoglobulin (BLG) [8]; molar ratio 1:1,154.31 ± 3.09 ^ab
same,PSH (protein surface hydrophobicity),β-lactoglobulin (BLG) [8]; molar ratio 1:1,260.66 ± 5.21 ^b
same,Reduction Rate of PSH,"β-lactoglobulin (BLG) [8]; molar ratio 1:1, versus BLG alone",20.87 ± 0.42 ^d %
same,F max (maximum fluorescence intensity at saturating ANS),β-lactoglobulin (BLG) [8]; molar ratio 2:1,120.27 ± 2.41 ^c
same,PSH (protein surface hydrophobicity),β-lactoglobulin (BLG) [8]; molar ratio 2:1,200.45 ± 4.01 ^d
same,Reduction Rate of PSH,"β-lactoglobulin (BLG) [8]; molar ratio 2:1, versus BLG alone",39.15 ± 0.78 ^c %
